Each structure is given as a SMILES string. Calls of active or inactive are those of the source.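 How the source made its calls: active means IC50 under 35 µM against the melanocortin-4 receptor MC4R counterscreen signal; inactive means IC50 above 35 µM.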

The subject of the test is HEK293 transfected MC4R, CRE-luciferase, beta-gal normalized. Description: inhibition of alpha-MSH-driven MC4R cAMP reporter – cell-based, HEK293, beta-gal normalized, luminescence, dry powder, counter-screen for LGR2 antagonist project, dose response (AID 743502).
For `C[C@H](CO)N1C[C@H](C)[C@H](CN(C)C(=O)Nc2cccc(F)c2)OCCCC[C@H](C)Oc2ccc(NC(=O)C3CCCCC3)cc2C1=O`, the IC50 was > 35 µM (inactive). Regarding `C[C@H](CO)N1C[C@H](C)[C@H](CN(C)C(=O)Nc2ccc(F)cc2)OCCCC[C@H](C)Oc2ccc(NC(=O)C3CCCCCC3)cc2C1=O`, the IC50 is > 35 µM (inactive). Under `C[C@H](CO)N1C[C@H](C)[C@H](CN(C)C(=O)Nc2ccc(Cl)cc2)OCCCC[C@H](C)Oc2ccc(NC(=O)C3CCCCC3)cc2C1=O` stands > 35 µM (inactive); under `C[C@H](CO)N1C[C@H](C)[C@H](CN(C)C(=O)Nc2ccc3ccccc3c2)OCCCC[C@H](C)Oc2ccc(NC(=O)C3CCCCC3)cc2C1=O`, > 35 µM (inactive). The result for `C[C@H](CO)N1C[C@H](C)[C@H](CN(C)C(=O)Nc2ccccc2F)OCCCC[C@H](C)Oc2ccc(NC(=O)C3CCCCC3)cc2C1=O` reads > 35 µM (inactive). `C[C@@H]1CN([C@@H](C)CO)C(=O)c2cc(NC(=O)C3CCCCC3)ccc2O[C@@H](C)CCCCO[C@H]1CN(C)C(=O)Nc1cccc2ccccc12`: the IC50 was > 35 µM (inactive). On to `C[C@H]1CCCCO[C@@H](CN(C)C(=O)Nc2cccc3ccccc23)[C@@H](C)CN([C@@H](C)CO)C(=O)c2cc(NC(=O)C3CCCCC3)ccc2O1`, for which the IC50 is > 35 µM (inactive). Under `C[C@H](CO)N1C[C@H](C)[C@H](CN(C)C(=O)Nc2ccc(F)cc2)OCCCC[C@H](C)Oc2ccc(NC(=O)C3CCCC3)cc2C1=O` stands > 35 µM (inactive). Under `Cc1ccc(NC(=O)N(C)C[C@@H]2OCCCC[C@H](C)Oc3ccc(NC(=O)C4CCCCC4)cc3C(=O)N([C@H](C)CO)C[C@@H]2C)cc1` stands > 35 µM (inactive); under `C[C@H](CO)N1C[C@H](C)[C@H](CN(C)C(=O)Nc2cccc3ccccc23)OCCCC[C@H](C)Oc2ccc(NC(=O)C3CCCCC3)cc2C1=O`, > 35 µM (inactive).
